Measured values: ChEMBL document CHEMBL4308841, “Synthesis, in vitro antiproliferative activity, and kinase inhibitory effects of pyrazole-containing diarylureas and diarylamides” (Eur J Med Chem, 2018)

Experiments:
Type in all cases: functional
MCF7 = assay: Growth inhibition of human MCF7 cells assessed as cell growth at 10 uM incubated for 48 hrs by sulforhodamine B assay relative to control; conditions: MCF7, 48 h, read-out: Activity
ACHN = assay: Growth inhibition of human ACHN cells assessed as cell growth at 10 uM incubated for 48 hrs by sulforhodamine B assay relative to control; conditions: read-out: Activity
MDA-MB-231 = assay: Growth inhibition of human MDA-MB-231 cells assessed as cell growth at 10 uM incubated for 48 hrs by sulforhodamine B assay relative to control; conditions: MDA-MB-231, 48 h, read-out: Activity
SN12C = assay: Growth inhibition of human SN12C cells assessed as cell growth at 10 uM incubated for 48 hrs by sulforhodamine B assay relative to control; conditions: read-out: Activity
786-0 = assay: Growth inhibition of human 786-0 cells assessed as cell growth at 10 uM incubated for 48 hrs by sulforhodamine B assay relative to control; conditions: 786-0, 48 h, read-out: Activity
SK-OV-3 = assay: Growth inhibition of human SKOV3 cells assessed as cell growth at 10 uM incubated for 48 hrs by sulforhodamine B assay relative to control; conditions: SK-OV-3, 48 h, read-out: Activity
SNB-19 = assay: Growth inhibition of human SNB19 cells assessed as cell growth at 10 uM incubated for 48 hrs by sulforhodamine B assay relative to control; conditions: SNB-19, 48 h, read-out: Activity
HCT-116 = assay: Growth inhibition of human HCT116 cells assessed as cell growth at 10 uM incubated for 48 hrs by sulforhodamine B assay relative to control; conditions: HCT-116, 48 h, read-out: Activity
KM12 = assay: Growth inhibition of human KM12 cells assessed as cell growth at 10 uM incubated for 48 hrs by sulforhodamine B assay relative to control; conditions: KM12, 48 h, read-out: Activity
Hs-578T = assay: Growth inhibition of human Hs578T cells assessed as cell growth at 10 uM incubated for 48 hrs by sulforhodamine B assay relative to control; conditions: read-out: Activity
OVCAR-4 = assay: Growth inhibition of human OVCAR4 cells assessed as cell growth at 10 uM incubated for 48 hrs by sulforhodamine B assay relative to control; conditions: OVCAR-4, 48 h, read-out: Activity
A498 = assay: Growth inhibition of human A498 cells assessed as cell growth at 10 uM incubated for 48 hrs by sulforhodamine B assay relative to control; conditions: A498, 48 h, read-out: Activity
SF-268 = assay: Growth inhibition of human SF268 cells assessed as cell growth at 10 uM incubated for 48 hrs by sulforhodamine B assay relative to control; conditions: SF-268, 48 h, read-out: Activity
A549 = assay: Growth inhibition of human A549/ATCC cells assessed as cell growth at 10 uM incubated for 48 hrs by sulforhodamine B assay relative to control; conditions: A549, 48 h, read-out: Activity
DU-145 = assay: Growth inhibition of human DU145 cells assessed as cell growth at 10 uM incubated for 48 hrs by sulforhodamine B assay relative to control; conditions: DU-145, 48 h, read-out: Activity
RXF 393 = assay: Growth inhibition of human RXF393 cells assessed as cell growth at 10 uM incubated for 48 hrs by sulforhodamine B assay relative to control; conditions: RXF 393, 48 h, read-out: Activity
OVCAR-3 = assay: Growth inhibition of human OVCAR3 cells assessed as cell growth at 10 uM incubated for 48 hrs by sulforhodamine B assay relative to control; conditions: OVCAR-3, 48 h, read-out: Activity
SNB-75 = assay: Growth inhibition of human SNB75 cells assessed as cell growth at 10 uM incubated for 48 hrs by sulforhodamine B assay relative to control; conditions: SNB-75, 48 h, read-out: Activity
SR = assay: Growth inhibition of human SR cells assessed as cell growth at 10 uM incubated for 48 hrs by sulforhodamine B assay relative to control; conditions: read-out: Activity
NCI-H460 = assay: Growth inhibition of human NCI-H460 cells assessed as cell growth at 10 uM incubated for 48 hrs by sulforhodamine B assay relative to control; conditions: NCI-H460, 48 h, read-out: Activity
SF-539 = assay: Growth inhibition of human SF539 cells assessed as cell growth at 10 uM incubated for 48 hrs by sulforhodamine B assay relative to control; conditions: SF-539, 48 h, read-out: Activity
LOX IMVI = assay: Growth inhibition of human LOXIMVI cells assessed as cell growth at 10 uM incubated for 48 hrs by sulforhodamine B assay relative to control; conditions: read-out: Activity
NCI/ADR-RES = assay: Growth inhibition of human NCI/ADR-RES cells assessed as cell growth at 10 uM incubated for 48 hrs by sulforhodamine B assay relative to control; conditions: read-out: Activity
UO-31 = assay: Growth inhibition of human UO31 cells assessed as cell growth at 10 uM incubated for 48 hrs by sulforhodamine B assay relative to control; conditions: UO-31, 48 h, read-out: Activity
RPMI-8226 = assay: Growth inhibition of human RPMI8226 cells assessed as cell growth at 10 uM incubated for 48 hrs by sulforhodamine B assay relative to control; conditions: RPMI-8226, 48 h, read-out: Activity
NCI-H23 = assay: Growth inhibition of human NCI-H23 cells assessed as cell growth at 10 uM incubated for 48 hrs by sulforhodamine B assay relative to control; conditions: NCI-H23, 48 h, read-out: Activity
OVCAR-8 = assay: Growth inhibition of human OVCAR8 cells assessed as cell growth at 10 uM incubated for 48 hrs by sulforhodamine B assay relative to control; conditions: OVCAR-8, 48 h, read-out: Activity
SK-MEL-28 = assay: Growth inhibition of human SK-MEL-28 cells assessed as cell growth at 10 uM incubated for 48 hrs by sulforhodamine B assay relative to control; conditions: SK-MEL-28, 48 h, read-out: Activity
M14 = assay: Growth inhibition of human M14 cells assessed as cell growth at 10 uM incubated for 48 hrs by sulforhodamine B assay relative to control; conditions: M14, 48 h, read-out: Activity
HOP-62 = assay: Growth inhibition of human HOP62 cells assessed as cell growth at 10 uM incubated for 48 hrs by sulforhodamine B assay relative to control; conditions: HOP-62, 48 h, read-out: Activity
HL-60(TB) = assay: Growth inhibition of human HL-60(TB) cells assessed as cell growth at 10 uM incubated for 48 hrs by sulforhodamine B assay relative to control; conditions: HL-60, 48 h, read-out: Activity
SW-620 = assay: Growth inhibition of human SW620 cells assessed as cell growth at 10 uM incubated for 48 hrs by sulforhodamine B assay relative to control; conditions: SW-620, 48 h, read-out: Activity
PC-3 = assay: Growth inhibition of human PC3 cells assessed as cell growth at 10 uM incubated for 48 hrs by sulforhodamine B assay relative to control; conditions: PC-3, 48 h, read-out: Activity

Structure (SMILES)	growth at 10 µM (MCF7)	growth at 10 µM (ACHN)	growth at 10 µM (MDA-MB-231)	growth at 10 µM (SN12C)	growth at 10 µM (786-0)	growth at 10 µM (SK-OV-3)	growth at 10 µM (SNB-19)	growth at 10 µM (HCT-116)	growth at 10 µM (KM12)	growth at 10 µM (Hs-578T)	growth at 10 µM (OVCAR-4)	growth at 10 µM (A498)	growth at 10 µM (SF-268)	growth at 10 µM (A549)	growth at 10 µM (DU-145)	growth at 10 µM (RXF 393)	growth at 10 µM (OVCAR-3)	growth at 10 µM (SNB-75)	growth at 10 µM (SR)	growth at 10 µM (NCI-H460)	other results
COc1cc(Cl)cc(-c2nn(-c3cccc(NC(=O)Nc4ccc(Cl)c(Cl)c4)c3)cc2-c2ccncc2)c1	4.66%	9.65%	-21%	15.5%	19.6%	14.2%	17.8%	9.22%	14.3%	28.5%	13.3%	-9.54%	25.3%	11.3%	12.1%	4.46%	4.11%	16.2%	-18.4%	3.1%	growth at 10 µM (SF-539): 20.9%; growth at 10 µM (LOX IMVI): 9.24%; growth at 10 µM (NCI/ADR-RES): 8.59%; growth at 10 µM (UO-31): 0.64%; growth at 10 µM (RPMI-8226): -4.44%; growth at 10 µM (NCI-H23): 5.72%; growth at 10 µM (OVCAR-8): 1.93%; growth at 10 µM (SK-MEL-28): 23.2%; growth at 10 µM (M14): 18.7%; growth at 10 µM (HOP-62): 15.7%; growth at 10 µM (HL-60(TB)): -5.12%; growth at 10 µM (SW-620): 13.3%; growth at 10 µM (PC-3): -5.03%
O=C(Nc1cccc(-n2cc(-c3ccncc3)c(-c3cc(O)cc(Cl)c3)n2)c1)c1ccc(N2CCOCC2)c(C(F)(F)F)c1	29.7%	20.7%	-48%	46.4%	36.6%	50.7%	12.1%	12.7%	9.89%	17.9%	77.1%	72.7%	52.7%	9.62%	38%	-45.6%	36.4%	23.1%	-12.4%	-26.1%	growth at 10 µM (SF-539): 2.4%; growth at 10 µM (LOX IMVI): -48.7%; growth at 10 µM (NCI/ADR-RES): 35%; growth at 10 µM (UO-31): 3.98%; growth at 10 µM (RPMI-8226): -3.77%; growth at 10 µM (NCI-H23): 15.4%; growth at 10 µM (OVCAR-8): 22.7%; growth at 10 µM (SK-MEL-28): -52.4%; growth at 10 µM (M14): -20.7%; growth at 10 µM (HOP-62): -2.19%; growth at 10 µM (HL-60(TB)): -46.4%; growth at 10 µM (SW-620): -26.2%; growth at 10 µM (PC-3): 19.1%
